Measured values as given in patent publication US7671203B2, “Method and system for separation and purification of at least one narcotic alkaloid using reverse phase preparative chromatography” (Mallinckrodt Inc., priority 2003, dated 2010).

Assay: Solubility of codeine in water

With `COc1ccc2c3c1O[C@H]1[C@@H](O)C=C[C@H]4[C@@H](C2)N(C)CC[C@@]341` [Codeine, codeine] the “concentration above which codeine is not fully soluble in water” value was ≤ 30 grams/liter.
